US20120114588A1, “IBAT INHIBITORS FOR TREATMENT OF METABOLIC DISORDERS AND RELATED CONDITIONS” (ALBIREO AB, priority 2010, published 2012)
Each block holds one molecule with its values, some of them ahead of it.

Key:
[1] = molecular target: T1, Ileal Bile Acid Transporter Human (Homo sapiens, UniProt Q12908); test: ISBT Hu HEK Uptake SPA: Human HEK Glycocholic acid Uptake Radiometric SPA; assay type: cell-based; conditions: human IBAT in HEK cells
T1 construct: expressed in transfected cells; host or cells: HEK
T1 sequence (Q12908 1-348): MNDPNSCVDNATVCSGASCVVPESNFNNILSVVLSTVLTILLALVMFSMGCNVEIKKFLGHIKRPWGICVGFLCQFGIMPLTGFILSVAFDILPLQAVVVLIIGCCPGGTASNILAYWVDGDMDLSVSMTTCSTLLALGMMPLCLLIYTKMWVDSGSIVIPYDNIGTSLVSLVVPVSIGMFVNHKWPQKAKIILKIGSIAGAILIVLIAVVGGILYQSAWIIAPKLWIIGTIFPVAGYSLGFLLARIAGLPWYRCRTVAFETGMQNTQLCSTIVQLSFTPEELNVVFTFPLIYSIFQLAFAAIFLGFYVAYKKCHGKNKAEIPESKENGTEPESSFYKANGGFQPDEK
Description: ISBT Hu HEK Uptake SPA 13203 IBAT HUM Ileal Bile Acid Transporter Human HEK Glycocholic acid Uptake Radiometric—SPA Inhibitor IC50 Mean IC50 (nM) was determined for the compounds of examples 1-14

Slc10a2 protein = molecular target: T2, Slc10a2 protein (Mus musculus, UniProt P70172); test: ob/ob mice gavaged with Slc10a2 inhibitor for 11 days: plasma, liver and distal ileum analyses; assay type: in vivo
T2 construct: from tissue; host or cells: living male ob/ob mice (Taconic), ileum in vivo
T2 sequence (P70172 1-348): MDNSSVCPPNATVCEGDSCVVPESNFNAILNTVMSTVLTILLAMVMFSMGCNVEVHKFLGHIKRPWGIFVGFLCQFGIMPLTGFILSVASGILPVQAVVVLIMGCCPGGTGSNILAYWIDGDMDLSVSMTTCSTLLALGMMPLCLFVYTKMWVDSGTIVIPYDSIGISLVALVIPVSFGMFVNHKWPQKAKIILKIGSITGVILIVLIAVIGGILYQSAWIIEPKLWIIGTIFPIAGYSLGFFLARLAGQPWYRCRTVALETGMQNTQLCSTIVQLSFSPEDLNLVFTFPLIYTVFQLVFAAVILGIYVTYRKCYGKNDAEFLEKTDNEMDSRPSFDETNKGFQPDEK
From the text: A diet enriched in sucrose (D12329, Research Diets, NJ) together with drinking water supplemented with 10% fructose was used for the high carbohydrate experiment. Animals had free access to the diet for two weeks. Control animals received standard mouse chow and tap water. Male ob/ob animals were from Taconic, DK. Ob/ob animals were gavaged with a specific Slc10a2 inhibitor Example 14 or a control vehicle for 11 days. Animals had free access to food and water. All animal care and experiments were conducted in accordance with accepted standards of humane animal care and approved by the Ethics Committee of Goteborg University.
Blood was centrifuged, and plasma was analyzed for total cholesterol and TGs using the IL TestTM cholesterol 181618-10 and TG 181610-60 kits on the Monarch 2000 system (IL Scandinavia, Gothenburg, Sweden). Lipoprotein cholesterol profiles were obtained by separation of […] of plasma using a micro fast protein liquid chromatography (FPLC) system for the generation of lipoprotein profiles (15). Plasma insulin levels were analyzed using a rodent insulin RIA kit (Linco, St. Charles, Mich.). Total plasma glucose was analyzed using the IL Test (IL Scandinavia, Gothenburg, Sweden) on the Monark 2000 system. Blood glucose was determined using a Bayer Elite glucometer (Bayer diagnostics, Germany). Plasma free fatty acids were analyzed employing a commercial 3 NEFA kit (Wako Chemicals
Total RNA was extracted from frozen livers or distal ileum with TRIzol reagent (Invitrogen, Carlsbad, Calif.). The RNA was DNase-treated with RQ1 Dnase (Promega, Madison, Wis.). cDNA synthesis and quantitative real time PCR was performed employing HPRT as endogenous control (18). Primer and probe information are available upon request.
A ligand blot employing ^125I-labeled rabbit β-VLDL was used to detect LDL receptors in liver as described (19). Hepatic SR-BI was assayed by immunoblot using a rodent specific rabbit polyclonal antibody (Novus Biologicals Inc., Littleton, Colo.), as described (20). Cyp7a1 protein levels were assayed in liver microsomal protein samples by immunoblot using a rabbit polyclonal antibody directed against the C-terminus of the CYP7A1 (18). To detect SREBP1 protein, cytoplasmic and nuclear protein preparations from liver were performed using the NE—PER reagent (Pierce), including Complete protease inhibitor (Roche), 1 mM phenyl-methylsulfonyl fluoride, 0.5 mM leupeptin, 5 μg/ml Calpain inhibitor I (Biomol, Pa.), following the manufacturer's instructions. 50 μg and 25 μg of cytoplasmic and nuclear liver protein fractions, respectively, were electrophoresed on NuPage Bis-Tris gels (Invitrogen) and transferred to nitrocellulose membranes. Membranes were blocked in 5% skimmed milk powder and incubated with a mouse monoclonal antibody raised against the N′-terminus of SREBP1 (Labvision Corporation, Calif.) at 1.5 μg/mL in 5% skimmed milk powder for two hours at room temperature. An HRP conjugated goat anti-mouse F(ab)2 antibody (Pierce) was used for detection of specific signals together with Supersignal reagent (Pierce) and a Fuji BAS 1800 analyzer (Fuji Photo Film Co.). To analyze phosphorylated liver proteins by western blot, total liver protein homogenates were prepared from frozen tissue by homogenization using a polytron followed by sonication in a buffer containing 20 mM Tris-Hcl, pH 7,4, 1% Triton X-100, 10% Glycerol, 150 mM NaCl, 2 mM EDTA, 25 mM betaglycerophosphate, 20 mM sodium floride, 1 mM sodium orthovanadate, 2 mM sodium pyrophosphate, 1 mM benzamidine, 1 mM phenyl-methylsulfonyl fluoride, 0.5 mM leupeptin, Complete proteinase inhibitor (Roche), and then centrifuged at 14 000 rpm in a microcentrifuge, and the supernatant was recovered. 50 μg protein was loaded on NuPage Bis-Tris gels (Invitrogen) and transferred to nitrocellulose membranes. […]

[2] = Phase IIb placebo-controlled study in patients with Chronic Idiopathic Constipation: plasma glucose; assay type: in vivo, human (patients); conditions: for Glucose concentration, Baseline, Mean ± SD: 10 mg group
From the text: In a Phase Ilb, Double-blind, Randomised, Placebo-controlled, Multi-centre, Dose-finding,
Efficacy and Safety of a Range of Doses of the substance according to Example 14 in Patients with Chronic Idiopathic Constipation in addition also have glucose values above Upper limit of normal (ULN), treated for 56 days. The patient was a male or non-pregnant female 20 years of age and 80 years of age with body mass index (BMI) 18.5 but <35.
p-values were obtained from an analysis of covariance with treatment group, demographic group and treatment-by-demographic group as fixed factors and baseline value as a covariate in the model. No adjustment for multiple comparisons was made.

[3] = western blot with phosphospecific antibodies

IC50 [1]: 0.18 nM
Structure (SMILES): CCCCC1(CCCC)CN(c2ccccc2)c2cc(SC)c(OCC(=O)N[C@@H](C(=O)N[C@@H](CC)C(=O)O)c3ccccc3)cc2S(=O)(=O)N1 [Example 3, 1,1-Dioxo-3,3-dibutyl-5-phenyl-7-methylthio-8-(N-{(R)-α-[N-((S)-1-carboxypropyl)carbamoyl]benzyl}carbamoylmethoxy)-2,3,4,5-tetrahydro-1,2,5-benzothiadiazepine]

IC50 [1]: 0.35 nM
Structure (SMILES): CCCCC1(CCCC)CN(c2ccccc2)c2cc(SC)c(OCC(=O)N[C@@H](C(=O)N[C@@H](CSC)C(=O)O)c3ccccc3)cc2S(=O)(=O)N1 [Example 4, 1,1-Dioxo-3,3-dibutyl-5-phenyl-7-methylthio-8-(N-{(R)-α-[N-((R)-1-carboxy-2-methylthioethyl)carbamoyl]benzyl}carbamoylmethoxy)-2,3,4,5-tetrahydro-1,2,5-benzothiadiazepine]

IC50 [1]: 0.16 nM
Structure (SMILES): CCCCC1(CCCC)CN(c2ccccc2)c2cc(SC)c(OCC(=O)N[C@@H](C(=O)N[C@@H](CC)C(=O)O)c3ccc(O)cc3)cc2S(=O)(=O)N1 [Example 5, 1,1-Dioxo-3,3-dibutyl-5-phenyl-7-methylthio-8-(N-{(R)-α-[N-((S)-1-carboxypropyl)carbamoyl]-4-hydroxybenzyl}carbamoylmethoxy)-2,3,4,5-tetrahydro-1,2,5-benzothiadiazepine]

IC50 [1]: 0.11 nM
Structure (SMILES): CCCCC1(CCCC)CN(c2ccccc2)c2cc(SC)c(OCC(=O)N[C@@H](C(=O)N[C@H](C(=O)O)[C@@H](C)O)c3ccc(O)cc3)cc2S(=O)(=O)N1 [Example 8, 1,1-Dioxo-3,3-dibutyl-5-phenyl-7-methylthio-8-(N-{(R)-α-[N-((S)-1-carboxy-2-(R)-hydroxypropyl)carbamoyl]-4-hydroxybenzyl}carbamoylmethoxy)-2,3,4,5-tetrahydro-1,2,5-benzothiadiazepine]

IC50 [1]: 0.3 nM
Structure (SMILES): CCCCC1(CCCC)CN(c2ccccc2)c2cc(SC)c(OCC(=O)N[C@@H](C(=O)N[C@@H](C)C(=O)O)c3ccc(O)cc3)cc2S(=O)(=O)N1 [Example 12]

The remaining lines, values behind:

Structure (SMILES): CCCCC1(CCCC)CN(c2ccccc2)c2cc(SC)c(OCC(=O)N[C@@H](C(=O)NCC(=O)O)c3ccccc3)cc2S(=O)(=O)N1 [Example 1, 1,1-Dioxo-3,3-dibutyl-5-phenyl-7-methylthio-8-(N-{(R)-α-[N-(carboxymethyl)carbamoyl]benzyl}carbamovlmethoxv)-2,3,4,5-tetrahvdro-1. 2. 5-benzothiadiazepine]
IC50 [1]: 0.45 nM

Structure (SMILES): CCCCC1(CCCC)CN(c2ccccc2)c2cc(SC)c(OCC(=O)N[C@@H](C(=O)N[C@@H](C)C(=O)O)c3ccccc3)cc2S(=O)(=O)C1 [Example 2, 1,1-Dioxo-3,3-dibutyl-5-phenyl-7-methylthio-8-(N-{(R)-α-[N′-((S)-1-carboxyethyl)carbamoyl]benzyl}carbamoylmethoxy)-2,3,4,5-tetrahydro-1,5-benzothiazepine]
IC50 [1]: 0.39 nM

Structure (SMILES): CCCCC1(CCCC)CN(c2ccccc2)c2cc(SC)c(OCC(=O)N[C@@H](C(=O)N[C@H](C(=O)O)C(C)C)c3ccccc3)cc2S(=O)(=O)N1 [Example 7, 1,1-Dioxo-3,3-dibutyl-5-phenyl-7-methylthio-8-(N-{(R)-α-[N-((S)-1-carboxy-2-methylpropyl)carbamoyl]benzyl}carbamoylmethoxy)-2,3,4,5-tetrahydro-1,2,5-benzothiadiazepine]
IC50 [1]: 0.36 nM

Structure (SMILES): CCCCC1(CCCC)CN(c2ccccc2)c2cc(SC)c(OCC(=O)N[C@@H](C(=O)N[C@@H](C)C(=O)O)c3ccccc3)cc2S(=O)(=O)N1 [Example 10, 1,1-Dioxo-3,3-dibutyl-5-phenyl-7-methylthio-8-(N-{(R)-α-[N-((S)-1-carboxyethyl)carbamoyl]benzyl}carbamoylmethoxy)-2,3,4,5-tetrahydro-1,2,5-benzothiadiazepine]
IC50 [1]: 0.2 nM

Structure (SMILES): CCCCC1(CCCC)CN(c2ccccc2)c2cc(SC)c(OCC(=O)N[C@@H](C(=O)NCC(=O)O)c3ccccc3)cc2S(=O)(=O)C1 [Example 14, 1,1-Dioxo-3,3-dibutyl-5-phenyl-7-methylthio-8-(N-{ (R)-1′-phenyl-1′-[N′-(carboxymethyl)carbamoyl]methyl}carbamoylmethoxy)-2,3,4,5-tetrahydro-1,5-benzothiazepine]
Total plasma TG levels reduced (Slc10a2 protein; 11 days treatment): 73%
Fasting levels of glucose reduced vs vehicle (Slc10a2 protein; 11 days treatment, blood glucose): 30%
Fasting insulin levels reduced (Slc10a2 protein; 11 days treatment, plasma): 50%
Total plasma cholesterol increased (Slc10a2 protein; 11 days treatment, tendency): 16%
FGF15 mRNA level (Slc10a2 protein; 11 days, distal ileum): significantly reduced
FXR gene expression (Slc10a2 protein; 11 days, distal ileum): unaltered
IBABP mRNA level (Slc10a2 protein; 11 days, distal ileum): significantly reduced
SHP mRNA level (Slc10a2 protein; 11 days, distal ileum): significantly reduced
Hepatic G6Pase expression (Slc10a2 protein; 11 days, liver): reduced
Hepatic GK mRNA level (Slc10a2 protein; 11 days, liver): increased
Hepatic LPK mRNA reduced (Slc10a2 protein; 11 days, liver): 30%
Hepatic PEPCK expression (Slc10a2 protein; 11 days, liver): reduced
Hepatic SREBP1c mRNA levels (Slc10a2 protein; 11 days, liver): markedly reduced
Hepatic cholesterol and TG content (Slc10a2 protein; 11 days, liver, vs control): no difference
Hepatic ACC mRNA level decreased (Slc10a2 protein; 11 days, liver, vs vehicle): 50%
Hepatic FAS mRNA level decreased (Slc10a2 protein; 11 days, liver, vs vehicle): 80%
Hepatic SCD1 mRNA level (Slc10a2 protein; 11 days, liver, vs vehicle): not significantly altered
Hepatic mRNA expression of FGF21 (Slc10a2 protein; 11 days, liver, vs vehicle): doubled
Hepatic mRNA level of CYP7A1 (Slc10a2 protein; 11 days, liver, vs vehicle): increased
Akt serine 473 phosphorylation in liver lysates (Slc10a2 protein; [3]): reduced
Mek1/2-Erk1/2 pathway activation in liver (Slc10a2 protein; [3]): reduced activation
IC50 [1]: 1.2 nM
Glucose concentration, Baseline, Mean ± SD ([2]; patients with glucose >ULN, n=4, before treatment): 129.8 ± 7.4 mg/dL
Glucose concentration, End of Treatment, Mean ± SD ([2]; patients with glucose >ULN, 10 mg, 56 days, n=4): 82 ± 10.23 mg/dL
Glucose concentration % change baseline to end of treatment ([2]; patients with glucose >ULN, 10 mg, 56 days, p 0.013 vs placebo): −36.9%
Reduction of glucose concentration, baseline vs end of treatment ([2]; patients with glucose higher than ULN, 10 mg, 56 days): 36%
Change of glucose concentration, baseline vs end of treatment ([2]; patients with glucose lower or equal to ULN): did not show any significant change
Glucose concentration, Baseline, Mean ± SD ([2]; patients with glucose ≦ULN, n=25, before treatment): 91.3 ± 7.52 mg/dL
Glucose concentration, End of Treatment, Mean ± SD ([2]; patients with glucose ≦ULN, 10 mg, 56 days, n=25): 90.6 ± 12.96 mg/dL
Glucose concentration % change baseline to end of treatment ([2]; patients with glucose ≦ULN, 10 mg, 56 days, p 0.653 vs placebo): −1%
